The values that follow come from patent publication US10179799B2, “Method for producing P1,P4-di(uridine 5′-) tetraphosphate” (YAMASA CORPORATION, priority 2012, dated 2019).

Each structure is given as a SMILES string. Like-named read-outs stand apart in the source and are kept apart here.

The data set can be described thus: Determination of stability of UTP and related compound (solution left to stand, HPLC, decomposition rate). The class given is physicochemical. The method, then: In order to evaluate stability of UTP free, stability of aqueous solutions of UTP free and UTP sodium salt (UTP-Na) and a dimethylacetamide solution of UTP-tributylamine salt (UTP-TBA) was examined. Also, stability of aqueous solutions of UDP free and UDP-Na as comparison control was also determined. The solution of each substance was left to stand for a certain period at −20° C., 25° C. or 50° C., and the concentration of each substance was determined by HPLC to calculate a decomposition rate. Here, the decomposition rate was defined as the following [equation 1]. Decomposition rate (%) of each substance={100−(HPLC % of each substance at determination/HPLC % of each substance at test start)×100} [equation 1]

[1] abbreviates: aqueous solution left to stand at 25° C., 8 h, 16 mM UTP free, 10 mM UDP free.
Where [2] appears, read: aqueous solution left to stand at 25° C., 24 h, 16 mM UTP free, 10 mM UDP free.
Setting [3] is: 50° C., 8 h, 35 mM UTP-TBA in dimethylacetamide solution, 40 mM UTP-Na and 40 mM UDP-Na in aqueous solution.
Where [4] appears, read: 50° C., 24 h, 35 mM UTP-TBA in dimethylacetamide solution, 40 mM UTP-Na and 40 mM UDP-Na in aqueous solution.

On to `O=c1ccn([C@@H]2O[C@H](COP(=O)(O)OP(=O)(O)O)[C@@H](O)[C@H]2O)c(=O)[nH]1` [UDP free, uridine 5′-diphosphoric acid], for which the Decomposition rate runs as follows: under setting [1], 0%; under setting [2], 0%.
As to `O=c1ccn([C@@H]2O[C@H](COP(=O)([O-])OP(=O)([O-])O)[C@@H](O)[C@H]2O)c(=O)[nH]1.[Na+].[Na+]` [UDP-Na, UDP sodium salt], the Decomposition rate is listed as 2% under setting [3] and 5% under setting [4].
On to `O=c1ccn([C@@H]2O[C@H](COP(=O)(O)OP(=O)(O)OP(=O)(O)O)[C@@H](O)[C@H]2O)c(=O)[nH]1` [UTP free, uridine 5′-triphosphoric acid], for which the “Stability during storage of the solution” value was “clearly low stability”. Further, the Decomposition rate under setting [1] was 4%. Under setting [2], the Decomposition rate is 12%. Moreover, the Decomposition rate (aqueous solution left to stand at −20° C., 18 h, 16 mM UTP free) was found to be 4%.
Turning to `O=c1ccn([C@@H]2O[C@H](COP(=O)([O-])OP(=O)([O-])OP(=O)([O-])O)[C@@H](O)[C@H]2O)c(=O)[nH]1.[Na+].[Na+].[Na+]` [UTP-Na, UTP sodium salt], the Decomposition rate under setting [3] was found to be 2% and the Decomposition rate under setting [4] amounted to 6%.
Regarding `CCCCN(CCCC)CCCC.O=c1ccn([C@@H]2O[C@H](COP(=O)(O)OP(=O)(O)OP(=O)(O)O)[C@@H](O)[C@H]2O)c(=O)[nH]1` [UTP-TBA, UTP-tributylamine salt], the Decomposition rate runs as follows: under setting [3], 7%; under setting [4], 18%. In addition, for the setting “compared to UTP sodium salt, UDP free and UDP sodium salt”, the “Stability during storage of the solution” value is “clearly low stability”.
